Data: patent publication US7273878B2, “Difluoroalkene derivative, pest control agent containing the same, and intermediate therefor” (Kumiai Chemical Industry Co., Ltd., priority 2001, dated 2007)

Key:
ddy mouse (Slc:ddy) = assay: Oral acute toxicity test; format: in vivo; set-up: key: 0/3 means none of 3 recipient animals died; 1/3 means one out of 3 recipient animals died; 2/3 means 2 out of 3 recipient animals died; 3/3 means all 3 recipient animals died; conditions: oral 30 mg/kg, mortality investigated for 7 days; for Test result Female (mortality, animals died out of 3): female ddy mouse; for Test result Male (mortality, animals died out of 3): male ddy mouse
Description: Oral acute toxicity test was conducted according to the method described in the guideline in “Guideline for the Preparation of Test Report on the Toxicity Studies”, published by the Ministry of Agriculture, Forestry and Fisheries of Japan. Experimental animals, 3 each of male and female of 7 weeks aged ddy mouse (Slc:ddy), were obtained from SLC Japan Inc. The compounds of the present invention and the reference substances were suspended in 0.5% sodium carboxymethyl cellulose or corn oil to give a 30 (mg/kg) equivalent amount for a dosage of 10 ml per 1 kg of body weight. The suspensions were inoculated using a sonde directly into the stomach of test animals which were fasted for 3 hours before inoculation. The test animals were fasted for additional 3 hours after inoculation, and the mortality of the inoculated animal was investigated for 7 days. In this table, 0/3 means none of 3 recipient animals died, 1/3 means one out of 3 recipient animals died, 2/3 means 2 out of 3 recipient animals died, 3/3 means all 3 recipient animals died.

Nilaparvata lugenis = assay: Insecticidal test for Nilaparvata lugenis; format: in vivo; conditions: 144 h, 500 ppm active ingredient (wettable powder), 4-instar larvae on germinated rice paddy, 25° C., after 6 days, read-out: mortality rate
Description: The wettable powder prepared according to the above Preparation Example 2 was diluted with water to a concentration of 500 ppm as a concentration of active ingredient. After soaking the germinated rice paddy in the test solution, the paddy was transferred into a 60 ml volume of plastic cup. Ten (10) heads of 4-instar larvae of Nilaparvata lugenis were inoculated on the paddy and capped, then left at the constant temperature of 25° C. After 6 days from the inoculation, the number of surviving insects was counted, and mortality rate of the insect was calculated according to the following formula 1. mortality rate (%)=[(10−number of surviving insect in the test field)/10]×100 (1)

Which results are given for CC(CCOC(=O)c1cnc(N(C)c2ccccc2)nc1C)=C(F)F [Compound 119, 4,4-difluoro-3-methyl-3-butenyl 4-methyl-2-(N-methyl-N-phenylamino)pyrimidine-5-carboxylate]?
Test result Female (mortality, animals died out of 3) (ddy mouse (Slc:ddy)): 0/3; Test result Male (mortality, animals died out of 3) (ddy mouse (Slc:ddy)): 0/3

How did the mortality at 500 ppm (Nilaparvata lugenis) turn out when CC(CCCCOC(=O)c1cnccn1)=C(F)F [Compound 28, 6,6-difluoro-5-methyl-5-hexenyl pyrazine-2-carboxylate] was run?
The mortality at 500 ppm was at least 90%.

Which “Test result Female (mortality, animals died out of 3)” value (from here on “Test result Female”) (ddy mouse (Slc:ddy)) does the source give for CC(CCOC(=O)c1cc2ccccc2s1)=C(F)F [Compound 18, 4,4-difluoro-3-methyl-3-butenyl benzo[b]thiophene-2-carboxylate] here?
The value was 0/3.

What about the “Test result Male (mortality, animals died out of 3)” value (“Test result Male” for short) (ddy mouse (Slc:ddy)) of the same molecule?
The value was 0/3.

How did the mortality at 500 ppm (Nilaparvata lugenis) turn out when CC(CCOC(=O)c1nc(C)cc(-c2ccccc2)n1)=C(F)F [Compound 278, 4,4-difluoro-3-methyl-3-butenyl 4-methyl-6-phenyl-pyrimidine-2-carboxylate] was run?
The mortality at 500 ppm was at least 90%.

How did the mortality at 500 ppm (Nilaparvata lugenis) turn out when CC(CCCCOC(=O)c1csc(-c2ccccc2)n1)=C(F)F [Compound 129, 6,6-difluoro-5-methyl-5-hexenyl 2-phenylthiazole-4-carboxylate] was run?
Its mortality at 500 ppm is at least 90%.

With CC(CCCCOC(=O)C1CCOC1)=C(F)F (stereo not shown) [Compound 41, 6,6-difluoro-5-methyl-5-hexenyl tetrahydrofuran-3-carboxylate] as the molecule, how does the mortality at 500 ppm (Nilaparvata lugenis) read?
The mortality at 500 ppm was at least 90%.

How did the mortality at 500 ppm (Nilaparvata lugenis) turn out when CC(CCCCOC(=O)c1cnc2ccccc2c1)=C(F)F [Compound 8, 6,6-difluoro-5-methyl-5-hexenyl quinoline-3-carboxylate] was run?
Its mortality at 500 ppm is at least 90%.

What does the source list for O=C(OCCCCC=C(F)F)c1ccc(Cl)nc1 [Reference compound A, 6,6-difluoro-5-hexenyl 6-chloronicotinate, reference compound]?
Test result Female (mortality, animals died out of 3) (ddy mouse (Slc:ddy)): 3/3; Test result Male (mortality, animals died out of 3) (ddy mouse (Slc:ddy)): 3/3

With O=C(OCCCCC=C(F)F)c1cc2ccccc2s1 [Reference compound D, 6,6-difluoro-5-hexenyl benzo[b]thiophen-2-carboxylate, reference compound] as the molecule, how does the “Test result Female” value (ddy mouse (Slc:ddy)) read?
The value was 3/3.

What about the “Test result Male” value (ddy mouse (Slc:ddy)) of the same molecule?
Its value is 3/3.

With CCOc1oc(-c2ccccc2)nc1C(=O)OCCCCC(C)=C(F)F [Compound 50, 6,6-difluoro-5-methyl-5-hexenyl 5-ethoxy-2-phenyl-oxazole-4-carboxylate] as the molecule, how does the mortality at 500 ppm (Nilaparvata lugenis) read?
Its mortality at 500 ppm is at least 90%.

How did the mortality at 500 ppm (Nilaparvata lugenis) turn out when CCCCOc1cc(C(=O)OCCC(C)=C(F)F)nc(C)n1 [Compound 276, 4,4-difluoro-3-methyl-3-butenyl 6-butoxy-2-methyl-pyrimidine-4-carboxylate] was run?
The mortality at 500 ppm was at least 90%.

CC(CCOC(=O)c1cccn1CC#N)=C(F)F [Compound 282, 4,4-difluoro-3-methyl-3-butenyl 1-cyanomethyl-1H-pyrrole-2-carboxylate] was tested. Which mortality at 500 ppm (Nilaparvata lugenis) did it give?
The mortality at 500 ppm was at least 90%.

How did the mortality at 500 ppm (Nilaparvata lugenis) turn out when CC(CCCCOC(=O)c1nsc2ccccc12)=C(F)F [Compound 45, 6,6-difluoro-5-methyl-5-hexenyl benzo[d]isothiazole-3-carboxylate] was run?
Its mortality at 500 ppm is at least 90%.

How did the mortality at 500 ppm (Nilaparvata lugenis) turn out when CC(CCCCOC(=O)c1cc(Cl)nnc1Cl)=C(F)F [Compound 48, 6,6-difluoro-5-methyl-5-hexenyl 3,6-dichloropyridazine-4-carboxylate] was run?
The mortality at 500 ppm was at least 90%.

How did the mortality at 500 ppm (Nilaparvata lugenis) turn out when CC(CCCCCCOC(=O)c1cc2ccccc2s1)=C(F)F [Compound 10, 8,8-difluoro-7-methyl-7-octenyl benzo[b]thiophene-2-carboxylate] was run?
The mortality at 500 ppm was at least 90%.

For CC(CCCCOC(=O)c1nc(C)n(-c2ccccc2)n1)=C(F)F [Compound 47, 6,6-difluoro-5-methyl-5-hexenyl 5-methyl-1-phenyl-1H-[1,2,4]triazole-3-carboxylate], which mortality at 500 ppm (Nilaparvata lugenis) is on record?
Its mortality at 500 ppm is at least 90%.

For CC(CCCCOC(=O)c1snnc1-c1ccccc1)=C(F)F [Compound 11, 6,6-difluoro-5-methyl-5-hexenyl 4-phenyl[1,2,3]-thiadiazole-5-carboxylate], which mortality at 500 ppm (Nilaparvata lugenis) is on record?
The mortality at 500 ppm was at least 90%.

For CC(CCCCOC(=O)c1ccc2ocnc2c1)=C(F)F [Compound 43, 6,6-difluoro-5-methyl-5-hexenyl benzoxazole-5-carboxylate], which mortality at 500 ppm (Nilaparvata lugenis) is on record?
The mortality at 500 ppm was at least 90%.

For CC(CCCCOC(=O)c1snc(Cl)c1Cl)=C(F)F [Compound 49, 6,6-difluoro-5-methyl-5-hexenyl 3,4-dichloroisothiazole-5-carboxylate], which mortality at 500 ppm (Nilaparvata lugenis) is on record?
Its mortality at 500 ppm is at least 90%.

With CCCCOc1ncc(C(=O)OCCC=C(F)F)c(C)n1 [Reference compound B, 4,4-difluoro-3-butenyl 2-butoxy-4-methylpyrimidine-5-carboxylate, reference compound] as the molecule, how does the “Test result Female” value (ddy mouse (Slc:ddy)) read?
Its value is 3/3.

What about the “Test result Male” value (ddy mouse (Slc:ddy)) of the same molecule?
Its value is 3/3.

Which mortality at 500 ppm (Nilaparvata lugenis) does the source give for CC(CCOC(=O)c1ncccc1C(=O)Nc1ccccc1)=C(F)F [Compound 234, 4,4-difluoro-3-methyl-3-butenyl 3-phenylcarbamoyl-pyridine-2-carboxylate] here?
The mortality at 500 ppm was at least 90%.

Which results are given for CC(CCCCOC(=O)c1ccc(Cl)nc1)=C(F)F [Compound 1, 6,6-di-fluoro-5-methyl-5-hexenyl 6-chloronicotinate]?
mortality at 500 ppm (Nilaparvata lugenis): ≥ 90%; Test result Female (mortality, animals died out of 3) (ddy mouse (Slc:ddy)): 0/3; Test result Male (mortality, animals died out of 3) (ddy mouse (Slc:ddy)): 0/3

With CC(CCCCOC(=O)c1cnsn1)=C(F)F [Compound 22, 6,6-difluoro-5-methyl-5-hexenyl [1,2,5]thiadiazole-3-carboxylate] as the molecule, how does the mortality at 500 ppm (Nilaparvata lugenis) read?
The mortality at 500 ppm was at least 90%.

Which “Test result Female” value (ddy mouse (Slc:ddy)) does the source give for Cc1nc(-c2ccccc2)ncc1C(=O)OCCC=C(F)F [Reference compound C, 4,4-difluoro-3-butenyl 4-methyl-2-phenylpyrimidine-5-carboxylate, reference compound] here?
Its value is 3/3.

And the “Test result Male” value (ddy mouse (Slc:ddy))?
The value was 3/3.

How did the mortality at 500 ppm (Nilaparvata lugenis) turn out when CC(CCCCOC(=O)c1cn(C)cn1)=C(F)F [Compound 39, 6,6-difluoro-5-methyl-5-hexenyl 1-methyl-1H-imidazole-4-carboxylate] was run?
The mortality at 500 ppm was at least 90%.

With CC(CCCCOC(=O)c1nc2ccccc2s1)=C(F)F [Compound 21, 6,6-difluoro-5-methyl-5-hexenyl benzothiazole-2-carboxylate] as the molecule, how does the mortality at 500 ppm (Nilaparvata lugenis) read?
The mortality at 500 ppm was at least 90%.

With CC(CCCCOC(=O)c1noc2ccccc12)=C(F)F [Compound 44, 6,6-difluoro-5-methyl-5-hexenyl benzo[d]isoxazole-3-carboxylate] as the molecule, how does the mortality at 500 ppm (Nilaparvata lugenis) read?
Its mortality at 500 ppm is at least 90%.

With CCc1nn(C)c(C(=O)OCCCCC(C)=C(F)F)c1Cl [Compound 26, 6,6-difluoro-5-methyl-5-hexenyl 4-chloro-5-ethyl-2-methyl-2H-pyrazole-3-carboxylate] as the molecule, how does the mortality at 500 ppm (Nilaparvata lugenis) read?
Its mortality at 500 ppm is at least 90%.

With CC(CCCCOC(=O)c1ccc2[nH]ccc2c1)=C(F)F [Compound 15, 6,6-difluoro-5-methyl-5-hexenyl 1H-indole-5-carboxylate] as the molecule, how does the mortality at 500 ppm (Nilaparvata lugenis) read?
Its mortality at 500 ppm is at least 90%.

For CC(CCCCOC(=O)c1cc2ccccc2s1)=C(F)F [Compound 3, 6,6-difluoro-5-methyl-5-hexenyl benzo[b]thiophene-2-carboxylate], which “Test result Female” value (ddy mouse (Slc:ddy)) is on record?
The value was 0/3.

What about the “Test result Male” value (ddy mouse (Slc:ddy)) of the same molecule?
Its value is 0/3.

CCn1c(C(=O)OCCCCC(C)=C(F)F)cc2ccccc21 [Compound 25, 6,6-difluoro-5-methyl-5-hexenyl 1-ethyl-1H-indole-2-carboxylate] was tested. Which mortality at 500 ppm (Nilaparvata lugenis) did it give?
Its mortality at 500 ppm is at least 90%.

How did the mortality at 500 ppm (Nilaparvata lugenis) turn out when CC(CCOC(=O)c1c2c(nn1C)CCC2)=C(F)F [Compound 242, 4,4-difluoro-3-methyl-3-butenyl 2-methyl-2,4,5,6-tetrahydrocyclopentapyrazole-3-carboxylate] was run?
Its mortality at 500 ppm is at least 90%.

For CC(CCCCOC(=O)c1ccco1)=C(F)F [Compound 9, 6,6-difluoro-5-methyl-5-hexenyl furan-2-carboxylate], which mortality at 500 ppm (Nilaparvata lugenis) is on record?
The mortality at 500 ppm was at least 90%.

With CC(CCCCOC(=O)c1sc(-c2ccccc2)nc1C)=C(F)F [Compound 29, 6,6-difluoro-5-methyl-5-hexenyl 4-methyl-2-phenyl-thiazole-5-carboxylate] as the molecule, how does the “Test result Female” value (ddy mouse (Slc:ddy)) read?
Its value is 0/3.

What about the “Test result Male” value (ddy mouse (Slc:ddy)) of the same molecule?
The value was 0/3.

Which mortality at 500 ppm (Nilaparvata lugenis) does the source give for CC(=O)N1CCC(C(=O)OCCCCC(C)=C(F)F)CC1 [Compound 40, 6,6-difluoro-5-methyl-5-hexenyl 1-acetylpiperidine-4-carboxylate] here?
Its mortality at 500 ppm is at least 90%.

With CC(CCCCOC(=O)c1cccn1C)=C(F)F [Compound 38, 6,6-difluoro-5-methyl-5-hexenyl 1-methyl-1H-pyrrole-2-carboxylate] as the molecule, how does the mortality at 500 ppm (Nilaparvata lugenis) read?
The mortality at 500 ppm was at least 90%.

For CC(CCOC(=O)c1cccn1CC1CC1)=C(F)F [Compound 281, 4,4-difluoro-3-methyl-3-butenyl 1-cyclopropylmethyl-1H-pyrrole-2-carboxylate], which mortality at 500 ppm (Nilaparvata lugenis) is on record?
Its mortality at 500 ppm is at least 90%.

How did the mortality at 500 ppm (Nilaparvata lugenis) turn out when CC(CCCCOC(=O)c1sccc1C)=C(F)F [Compound 2, 6,6-difluoro-5-methyl-5-hexenyl 3-methylthiophene-2-carboxylate] was run?
The mortality at 500 ppm was at least 90%.

How did the mortality at 500 ppm (Nilaparvata lugenis) turn out when CC(CCCCOC(=O)c1cnc(-c2ccccc2)s1)=C(F)F [Compound 132, 6,6-difluoro-5-methyl-5-hexenyl 2-phenylthiazole-5-carboxylate] was run?
The mortality at 500 ppm was at least 90%.
